In patent US9283222B2 (priority 2006, dated 2016):

Target: Recombinant Human Poly(ADP-Ribose) Polymerase (PARP), PARP-1 (Homo sapiens (Human), UniProt P09874)
Conditions: read-out: PARP-1 (Ki); Table 1; text calls the values EC50s

Recombinant Human Poly(ADP-Ribose) Polymerase (PARP), PARP-1, sequence (P09874 whole entry): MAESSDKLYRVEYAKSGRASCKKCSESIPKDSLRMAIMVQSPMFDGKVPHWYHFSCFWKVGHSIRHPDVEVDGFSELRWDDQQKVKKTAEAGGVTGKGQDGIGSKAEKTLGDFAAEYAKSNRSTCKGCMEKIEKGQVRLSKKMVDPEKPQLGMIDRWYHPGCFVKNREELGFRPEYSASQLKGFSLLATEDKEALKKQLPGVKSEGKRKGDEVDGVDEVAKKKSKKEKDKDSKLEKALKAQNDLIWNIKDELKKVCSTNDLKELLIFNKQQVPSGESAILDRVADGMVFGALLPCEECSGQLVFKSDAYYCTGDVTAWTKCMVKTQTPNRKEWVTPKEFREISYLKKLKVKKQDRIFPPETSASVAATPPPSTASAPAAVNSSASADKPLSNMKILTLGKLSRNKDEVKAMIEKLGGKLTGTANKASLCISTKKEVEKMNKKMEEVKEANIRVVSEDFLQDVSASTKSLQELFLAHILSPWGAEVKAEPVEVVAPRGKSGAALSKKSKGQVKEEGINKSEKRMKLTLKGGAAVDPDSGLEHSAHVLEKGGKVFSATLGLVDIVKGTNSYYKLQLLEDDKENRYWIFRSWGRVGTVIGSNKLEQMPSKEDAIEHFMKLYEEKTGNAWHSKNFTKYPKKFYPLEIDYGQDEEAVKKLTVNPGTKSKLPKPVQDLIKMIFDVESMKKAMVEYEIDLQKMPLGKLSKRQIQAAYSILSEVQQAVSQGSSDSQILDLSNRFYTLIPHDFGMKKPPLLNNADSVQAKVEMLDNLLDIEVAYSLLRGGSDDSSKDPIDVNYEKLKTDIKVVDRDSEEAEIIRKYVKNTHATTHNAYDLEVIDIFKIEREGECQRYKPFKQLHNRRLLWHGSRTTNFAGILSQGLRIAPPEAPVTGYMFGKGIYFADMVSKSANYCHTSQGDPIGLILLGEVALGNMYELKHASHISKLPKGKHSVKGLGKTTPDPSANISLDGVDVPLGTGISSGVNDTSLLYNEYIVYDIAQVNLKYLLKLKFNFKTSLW

| Compound | Ki [nM] |
| --- | --- |
| Cc1ccc(NC(=O)c2cccc(Cc3n[nH]c(=O)c4c3CCCC4)c2)cc1Br [Example 344, N-(3-bromo-4-methylphenyl)-3-((4-oxo-3,4,5,6,7,8-hexahydrophthalazin-1-yl)methyl)benzamide] | 194 |
| O=C(c1ccccn1)N1CCN(C(=O)c2cc(Cc3n[nH]c(=O)c4c3NCCC4)ccc2F)CC1 [Example 665, 8-(4-fluoro-3-{[4-(pyridin-2-ylcarbonyl)piperazin-1-yl]carbonyl}benzyl)-2,3,4,6-tetrahydropyrido[2,3-d]pyridazin-5(1H)-one] | 1.1 |
| CC(C)(C)C(=O)N1CCN(C(=O)c2cc(Cc3n[nH]c(=O)c4c3CCCC4)ccc2F)CC1 [Example 587, 4-(3-[4-(2,2-dimethylpropanoyl)piperazin-1-yl]carbonyl-4-fluorobenzyl)-5,6,7,8-tetrahydrophthalazin-1(2H)-one] | 1 |
| O=C(CCCC(=O)Nc1cc(Cc2n[nH]c(=O)c3c2CCCC3)ccc1F)Nc1ccccc1 [Example 457, N-(2-fluoro-5-((4-oxo-3,4,5,6,7,8-hexahydrophthalazin-1-yl)methyl)phenyl)-N′-phenylpentanediamide] | 0.7 |
| CC(C)n1c(C(F)(F)F)nc2cc(C(=O)N3CCN(C(=O)c4cc(Cc5n[nH]c(=O)c6c5CCCC6)ccc4F)CC3)ccc21 [Example 725, 4-{4-fluoro-3-[(4-{[1-isopropyl-2-(trifluoromethyl)-1H-benzimidazol-5-yl]carbonyl}piperazin-1-yl)carbonyl]benzyl}-5,6,7,8-tetrahydrophthalazin-1(2H)-one] | 5 |
| O=C(NC1CCN(C(=O)c2cc(Cc3n[nH]c(=O)c4c3NCCC4)ccc2F)CC1)c1cccnc1 [Example 747, N-(1-{2-fluoro-5-[(5-oxo-1,2,3,4,5,6-hexahydropyrido[2,3-d]pyridazin-8-yl)methyl]benzoyl}piperidin-4-yl)nicotinamide] | 1.5 |
| CCN(CC)C(=O)C1CCCN(C(=O)c2cc(Cc3n[nH]c(=O)c4c3CCCC4)ccc2F)C1 (stereo not drawn) [Example 505, N,N-diethyl-1-{2-fluoro-5-[(4-oxo-3,4,5,6,7,8-hexahydrophthalazin-1-yl)methyl]benzoyl}piperidine-3-carboxamide] | 6 |
| NC(=O)C1CCN(C(=O)c2cccc(Cc3n[nH]c(=O)c4c3CCCC4)c2)CC1 [Example 430, 1-(3-((4-oxo-3,4,5,6,7,8-hexahydrophthalazin-1-yl)methyl)benzoyl)piperidine-4-carboxamide] | 5 |
| O=C(NCC1CCCCN1)c1cccc(Cc2n[nH]c(=O)c3c2CCCC3)c1 (stereo not drawn) [Example 62, 3-((4-oxo-3,4,5,6,7,8-hexahydrophthalazin-1-yl)methyl)-N-(piperidin-2-ylmethyl)benzamide] | 42 |
| O=C(c1cncnc1)N1CCN(C(=O)c2cc(Cc3n[nH]c(=O)c4c3NCCC4)ccc2F)CC1 [Example 664, 8-(4-fluoro-3-{[4-(pyrimidin-5-ylcarbonyl)piperazin-1-yl]carbonyl}benzyl)-2,3,4,6-tetrahydropyrido[2,3-d]pyridazin-5(1H)-one] | 1.3 |
| COc1cc(NC(=O)c2cccc(Cc3n[nH]c(=O)c4c3CCCC4)c2)cc(C(F)(F)F)c1 [Example 347, N-(3-methoxy-5-(trifluoromethyl)phenyl)-3-((4-oxo-3,4,5,6,7,8-hexahydrophthalazin-1-yl)methyl)benzamide] | 337 |
| O=C(c1cccc(Cc2n[nH]c(=O)c3c2CCCC3)c1)N1CCN(c2ccc(F)cc2)CC1 [Example 445, 4-(3-((4-(4-fluorophenyl)piperazin-1-yl)carbonyl)benzyl)-5,6,7,8-tetrahydrophthalazin-1(2H)-one] | 6 |
| O=C(c1ccccc1)C1CCN(C(=O)c2cc(Cc3n[nH]c(=O)c4c3NCCC4)ccc2F)CC1 [Example 609, 8-{3-[(4-benzoylpiperidin-1-yl)carbonyl]-4-fluorobenzyl}-2,3,4,6-tetrahydropyrido[2,3-d]pyridazin-5(1H)-one] | 1.8 |
| Cc1ccc(C(=O)Nc2cccc(Cc3n[nH]c(=O)c4c3CCCC4)c2)s1 [Example 199, 5-methyl-N-(3-((4-oxo-3,4,5,6,7,8-hexahydrophthalazin-1-yl)methyl)phenyl)thiophene-2-carboxamide] | 196 |
| CC(c1cccc(-c2cccc(C(=O)NCCN(C)C)c2)c1)c1n[nH]c(=O)c2c1CCCC2 (stereo not drawn) [Example 287, N-(2-(dimethylamino)ethyl)-3′-(1-(4-oxo-3,4,5,6,7,8-hexahydrophthalazin-1-yl)ethyl)-1,1′-biphenyl-3-carboxamide] | 771 |
| O=C(Nc1ccccc1Nc1ccccc1)c1cccc(Cc2n[nH]c(=O)c3c2CCCC3)c1 [Example 364, N-(2-anilinophenyl)-3-((4-oxo-3,4,5,6,7,8-hexahydrophthalazin-1-yl)methyl)benzamide] | 316 |
| CN(C(=O)C1CCC1)c1cc(Cc2n[nH]c(=O)c3c2CCCC3)ccc1F [Example 753, N-{2-fluoro-5-[(4-oxo-3,4,5,6,7,8-hexahydrophthalazin-1-yl)methyl]phenyl}-N-methylcyclobutanecarboxamide] | 92 |
| Cc1cccc(O)c1NC(=O)c1cccc(Cc2n[nH]c(=O)c3c2CCCC3)c1 [Example 348, N-(2-hydroxy-6-methylphenyl)-3-((4-oxo-3,4,5,6,7,8-hexahydrophthalazin-1-yl)methyl)benzamide] | 259 |
| O=C(c1cc(Cc2n[nH]c(=O)c3c2NCCC3)ccc1F)N1CCN(S(=O)(=O)c2ccccc2)CC1 [Example 562, 8-(4-fluoro-3-{[4-(phenylsulfonyl)piperazin-1-yl]carbonyl}benzyl)-2,3,4,6-tetrahydropyrido[2,3-d]pyridazin-5(1H)-one] | 0.9 |

More lines, in order of falling Ki, values ahead:

| Ki [nM] | Compound |
| --- | --- |
| 789 | CCc1ccccc1NC(=O)c1cccc(Cc2n[nH]c(=O)c3c2CCCC3)c1 [Example 329, N-(2-ethylphenyl)-3-((4-oxo-3,4,5,6,7,8-hexahydrophthalazin-1-yl)methyl)benzamide] |
| 570 | Cn1cccc1C(=O)Nc1cccc(Cc2n[nH]c(=O)c3c2CCCC3)c1 [Example 201, 1-methyl-N-(3-((4-oxo-3,4,5,6,7,8-hexahydrophthalazin-1-yl)methyl)phenyl)-1H-pyrrole-2-carboxamide] |
| 442 | CC(Cc1n[nH]c(=O)c2c1CCCC2)c1cccc(-c2cccc(C(N)=O)c2)c1 (stereo not drawn) [Example 283, 3′-(1-methyl-2-(4-oxo-3,4,5,6,7,8-hexahydrophthalazin-1-yl)ethyl)-1,1′-biphenyl-3-carboxamide] |
| 396 | COC(=O)c1ncccc1Cc1n[nH]c(=O)c2c1CCCC2 [Example 85, methyl 3-((4-oxo-3,4,5,6,7,8-hexahydrophthalazin-1-yl)methyl)pyridine-2-carboxylate] |
| 195 | O=C(NC1CCCCC1)c1cc(Cc2n[nH]c(=O)c3c2CCCC3)ccn1 [Example 77, N-cyclohexyl-4-((4-oxo-3,4,5,6,7,8-hexahydrophthalazin-1-yl)methyl)pyridine-2-carboxamide] |
| 176 | O=C(Nc1cccc(Cc2n[nH]c(=O)c3c2CCCC3)c1)c1cscn1 [Example 205, N-(3-((4-oxo-3,4,5,6,7,8-hexahydrophthalazin-1-yl)methyl)phenyl)-1,3-thiazole-4-carboxamide] |
| 160 | CC(C)c1ccc(C(=O)Nc2cccc(Cc3n[nH]c(=O)c4c3CCCC4)c2)cc1 [Example 186, 4-isopropyl-N-(3-((4-oxo-3,4,5,6,7,8-hexahydrophthalazin-1-yl)methyl)phenyl)benzamide] |
| 99 | CCc1cccc(NC(=O)c2cccc(Cc3n[nH]c(=O)c4c3CCCC4)c2)c1 [Example 330, N-(3-ethylphenyl)-3-((4-oxo-3,4,5,6,7,8-hexahydrophthalazin-1-yl)methyl)benzamide] |
| 85 | CS(=O)(=O)c1cccc(-c2cc(Cc3n[nH]c(=O)c4c3CCCC4)ccc2F)c1 [Example 249, 4-((6-fluoro-3′-(methylsulfonyl)-1,1′-biphenyl-3-yl)methyl)-5,6,7,8-tetrahydrophthalazin-1(2H)-one] |
| 76 | CC1(C(=O)Nc2cccc(Cc3n[nH]c(=O)c4c3CCCC4)c2)CC1 [Example 136, 1-methyl-N-(3-((4-oxo-3,4,5,6,7,8-hexahydrophthalazin-1-yl)methyl)phenyl)cyclopropanecarboxamide] |
| 70 | O=C(NCCc1ccc(-c2ccccc2)cc1)c1cccc(Cc2n[nH]c(=O)c3c2CCCC3)c1 [Example 393, N-(2-(1,1′-biphenyl-4-yl)ethyl)-3-((4-oxo-3,4,5,6,7,8-hexahydrophthalazin-1-yl)methyl)benzamide] |
| 69 | CC1CC1C(=O)Nc1cccc(Cc2n[nH]c(=O)c3c2CCCC3)c1 (stereo not drawn) [Example 137, 2-methyl-N-(3-((4-oxo-3,4,5,6,7,8-hexahydrophthalazin-1-yl)methyl)phenyl)cyclopropanecarboxamide] |
| 44 | O=C(NCCc1ccc(F)cc1)c1cccc(Cc2n[nH]c(=O)c3c2CCCC3)c1 [Example 387, N-(2-(4-fluorophenyl)ethyl)-3-((4-oxo-3,4,5,6,7,8-hexahydrophthalazin-1-yl)methyl)benzamide] |
| 5 | CN(C(=O)c1cc(Cc2n[nH]c(=O)c3c2NCCC3)ccc1F)C1CCN(C(=O)[C@@H]2CSCN2)CC1 [Example 716, 2-fluoro-N-methyl-5-[(5-oxo-1,2,3,4,5,6-hexahydropyrido[2,3-d]pyridazin-8-yl)methyl]-N-{1-[(4R)-1,3-thiazolidin-4-ylcarbonyl]piperidin-4-yl}benzamide] |
| 4 | CN(C)CCN1CCN(C(=O)c2cc(Cc3n[nH]c(=O)c4c3CCCC4)ccc2F)CC1 [Example 501, 4-[3-({4-[2-(dimethylamino)ethyl]piperazin-1-yl}carbonyl)-4-fluorobenzyl]-5,6,7,8-tetrahydrophthalazin-1(2H)-one] |
| 1.9 | O=C(c1cc(Cc2n[nH]c(=O)c3c2CCCC3)ccc1F)N1CCN(C(=O)N2CCCCC2)CC1 [Example 495, 4-(4-fluoro-3-{[4-(piperidin-1-ylcarbonyl)piperazin-1-yl]carbonyl}benzyl)-5,6,7,8-tetrahydrophthalazin-1(2H)-one] |
| 1.1 | O=C(c1cc[nH]n1)N1CCN(C(=O)c2cc(Cc3n[nH]c(=O)c4c3CCCC4)ccc2F)CC1 [Example 678, 4-(4-fluoro-3-{[4-(1H-pyrazol-3-ylcarbonyl)piperazin-1-yl]carbonyl}benzyl)-5,6,7,8-tetrahydrophthalazin-1(2H)-one] |
